Measurements taken from US20070207195A1, “Genetic Screening for Polymorphisms in Human Genes that Increase or Decrease Sensitivity to Toxic Agents” (Applied Genetics Incorporated Dermatics, priority 2004, published 2007).

Test system: NCI screening panel tumor cell lines
Assay: Growth inhibition (GI50, sulforhodamine B) in NCI tumor cell line panel, correlated with polymorphic genotype
Format: cell-based, human
[1] = NOS3 t-786c, ratio of average GI(50) of genotypes, 48 h drug incubation

Method: The method tests a toxic agent over five 10-fold dilutions in cells for 48 hrs in a 5% CO2 atmosphere and 100% humidity. For most agents the highest concentration was 0.1 mM, but for the standard agents the highest well concentration depended on experience with the agent. DNA purified from each cell line was analyzed for SNPs at the alleles of interest. […] Cell suspensions were added to a microtiter plate and incubated for 24 h at 37° C. The drugs were added at concentrations spanning five 10-fold dilutions, and incubated for 48 h. The cells were assayed by staining the cells with sulforhodamine B, and a plate reader was used to read the optical densities. The results are expressed as a GI50 value, which is the drug concentration producing 50% growth inhibition, with correction for the cell count at time zero. […] The drug sensitivities for the polymorphs of each gene of interest were calculated in the following manner. For each drug, the average GI(50) for each polymorphic genotype was calculated, e.g., the GI(50) for the homozygous dominant, heterozygous and homozygous variant genotypes. Then the GI(50)s for all the drugs were analyzed among genotypes by nonparametric Friedman Repeated Measures ANOVA. In this test the GI(50) is only used for ranking among the genotypes for each drug, so errors due to sample size among genotypes are minimized. Statistical analysis of each pair of polymorphic genotypes was done by the Tukey-Kramer Multiple Comparison Test. Analysis of relative sensitivity of the genotypes to an individual drug was by parametric ANOVA. To determine the relative sensitivity of each pair of genotypes, the relative sensitivity to each drug was calculated by dividing the GI(50) of one genotype by the GI(50) of the other. The relative sensitivities for all the drugs were then averaged. For each pair of genotypes, we also calculated the percent of drugs in which one genotype was more sensitive than the other. […]

Row | SMILES | survival of NOS3 t-786c homozygous variant genotype relative to heterozygous genotype [1] [%] | survival of NOS3 t-786c homozygous variant genotype relative to homozygous dominant genotype [1] [%] | resistance of XRCC1 R399Q homozygous variant genotype versus homozygous dominant genotype (XRCC1 R399Q, single-drug analysis, p=0.045 Bonferroni adjusted multiple comparison test)
1 | Nc1nc2nc[nH]c2c(=S)[nH]1 [thioguanine, Thioguanine] | 35 | 68 | 
2 | CC[C@]1(O)C[C@@H]2CN(CCc3c([nH]c4ccccc34)[C@@](C(=O)OC)(c3cc4c(cc3OC)N(C)[C@H]3[C@@](O)(C(=O)OC)[C@H](OC(C)=O)[C@]5(CC)C=CCN6CC[C@]43[C@@H]65)C2)C1 [vinblastine] |  |  | significantly more resistant
